Assay results published in PubChem BioAssay AID256 (DTP/NCI, 2004).
Several values for one entry are separate records, joined by “and”; a condition that tells them apart may be missing. Identical values can stand only once. Toxic doses and inconclusive results are not listed. How the source made its calls: active means survival T/C of 150% or more; inactive means T/C below 125% in these data.

System: CD2F1 mice, L1210 leukemia ip, survival T/C
Experiment: NCI In Vivo Anticancer Drug Screen. Data for tumor model L1210 Leukemia (intraperitoneal) in CD2F1 (CDF1) mice
Conditions: higher = longer survival
How it was run: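 In this screen, transplantable tumors were grown in mice given either the compound or its vehicle. Results were expressed as the treated measurement relative to the control measurement.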

[1] = endpoint: mean survival time, dose: 100.0 mg/kg/injection, schedule: Q04DX003 (ip), vehicle: saline with Tween-80
[2] = endpoint: mean survival time, dose: 50.0 mg/kg/injection, schedule: Q04DX002 (ip), vehicle: saline with Tween-80
[3] = endpoint: mean survival time, dose: 100.0 mg/kg/injection, schedule: Q04DX002 (ip), vehicle: saline with Tween-80
[4] = endpoint: mean survival time, dose: 200.0 mg/kg/injection, schedule: Q04DX002 (ip), vehicle: saline with Tween-80
[5] = endpoint: mean survival time, dose: 50.0 mg/kg/injection, schedule: Q01DX009 (ip), vehicle: saline with Tween-80
[6] = endpoint: mean survival time, dose: 100.0 mg/kg/injection, schedule: Q01DX009 (ip), vehicle: saline with Tween-80
[7] = endpoint: mean survival time, dose: 200.0 mg/kg/injection, schedule: Q01DX009 (ip), vehicle: saline with Tween-80
[8] = endpoint: mean survival time, dose: 50.0 mg/kg/injection, schedule: Q01DX009 (ip), vehicle: saline
[9] = endpoint: mean survival time, dose: 100.0 mg/kg/injection, schedule: Q01DX009 (ip), vehicle: saline
[10] = endpoint: mean survival time, dose: 200.0 mg/kg/injection, schedule: Q04DX003 (ip), vehicle: saline with Tween-80
[11] = endpoint: mean survival time, dose: 25.0 mg/kg/injection, schedule: Q04DX002 (ip), vehicle: saline with Tween-80
[12] = endpoint: mean survival time, dose: 400.0 mg/kg/injection, schedule: Q04DX002 (ip), vehicle: saline with Tween-80
[13] = endpoint: mean survival time, dose: 400.0 mg/kg/injection, schedule: Q04DX003 (ip), vehicle: saline with Tween-80

Measured: T/C

Nc1nc(Nc2ccccc2)c2ncn(C3OC(CO)C(O)C3O)c2n1 (stereo not given)
inactive: endpoint: mean survival time, dose: 6.25 mg/kg/injection, schedule: Q01DX005 (ip), vehicle: distilled water + Tween-80 98 % of control | endpoint: mean survival time, dose: 12.5 mg/kg/injection, schedule: Q01DX005 (ip), vehicle: distilled water + Tween-80 98 % of control | endpoint: mean survival time, dose: 25.0 mg/kg/injection, schedule: Q01DX005 (ip), vehicle: distilled water + Tween-80 102 % of control | endpoint: mean survival time, dose: 50.0 mg/kg/injection, schedule: Q01DX005 (ip), vehicle: distilled water + Tween-80 101 % of control | endpoint: mean survival time, dose: 100.0 mg/kg/injection, schedule: Q01DX005 (ip), vehicle: distilled water + Tween-80 98 % of control

CCOC(CNCc1ccc(OC)cc1)OCC
inactive: endpoint: mean survival time, dose: 100.0 mg/kg/injection, schedule: Q01DX001 (ip), vehicle: saline 104 % of control | endpoint: mean survival time, dose: 200.0 mg/kg/injection, schedule: Q01DX001 (ip), vehicle: saline 111 % of control

COCC(O)CN1CCN(c2ccccc2C)CC1 (stereo not given)
inactive: [1] 93 % of control

Cc1cc(OC(=O)N2CCCCC2)c(C(C)C)cc1[N+](C)(C)C
inactive: endpoint: mean survival time, dose: 0.06 mg/kg/injection, schedule: Q01DX009 (ip), vehicle: saline 95 % of control | endpoint: mean survival time, dose: 0.07 mg/kg/injection, schedule: Q04DX003 (ip), vehicle: saline sonified 97 % of control | endpoint: mean survival time, dose: 0.13 mg/kg/injection, schedule: Q04DX003 (ip), vehicle: saline sonified 106 % of control | endpoint: mean survival time, dose: 0.25 mg/kg/injection, schedule: Q04DX003 (ip), vehicle: saline sonified 100 % of control

CNc1nc(N)[nH]c(=O)c1N=O
inactive: [2] 105 % of control | [3] 102 % of control | [4] 105 % of control

OCC#CCOCC(O)CCl (stereo not given)
inactive: endpoint: mean survival time, dose: 25.0 mg/kg/injection, schedule: Q01DX009 (ip), vehicle: water 107 % of control | endpoint: mean survival time, dose: 50.0 mg/kg/injection, schedule: Q01DX009 (ip), vehicle: water 98 % of control | endpoint: mean survival time, dose: 100.0 mg/kg/injection, schedule: Q01DX009 (ip), vehicle: water 104 % of control | endpoint: mean survival time, dose: 200.0 mg/kg/injection, schedule: Q01DX009 (ip), vehicle: water 97 % of control

C/C=C/C(O)C1CCCCC1 (stereo not given)
inactive: [5] 103 % of control | [6] 98 % of control | [7] 107 % of control

O=C(N1CCOCC1)C1(c2ccccc2)CCNCC1
inactive: [8] 93 % of control | [9] 104 % of control

CC(C)/C(=N\[N+](C)(C)C)c1ccccc1
inactive: endpoint: mean survival time, dose: 18.8 mg/kg/injection, schedule: Q01DX009 (ip), vehicle: saline 97 % of control | endpoint: mean survival time, dose: 37.5 mg/kg/injection, schedule: Q01DX009 (ip), vehicle: saline 96 % of control | endpoint: mean survival time, dose: 75.0 mg/kg/injection, schedule: Q01DX009 (ip), vehicle: saline 91 % of control

O=C1c2ccccc2CCC1(Br)C(Br)c1ccccc1 (stereo not given)
inactive: endpoint: mean survival time, dose: 100.0 mg/kg/injection, schedule: Q01DX009 (ip), vehicle: Klucel (hydroxypropylcellulose) (HPC) 100 % of control | endpoint: mean survival time, dose: 200.0 mg/kg/injection, schedule: Q01DX009 (ip), vehicle: Klucel (hydroxypropylcellulose) (HPC) 100 % of control | endpoint: mean survival time, dose: 400.0 mg/kg/injection, schedule: Q01DX009 (ip), vehicle: Klucel (hydroxypropylcellulose) (HPC) 96 % of control

Cc1ccc2c(c1)CN(C13CC4CC(CC(C4)C1)C3)CO2
inactive: [6] 96 % of control | [7] 96 % of control | endpoint: mean survival time, dose: 400.0 mg/kg/injection, schedule: Q01DX009 (ip), vehicle: saline with Tween-80 97 % of control

Brc1ccc(N=C=C(c2ccccc2)c2ccccc2)cc1
inactive: [5] 98 % of control | [6] 96 % of control | [1] 92 % of control | [7] 102 % of control | [10] 101 % of control

N#CC(=C1CCCCC1)c1ccccc1
inactive: endpoint: mean survival time, dose: 75.0 mg/kg/injection, schedule: Q01DX001 (ip), vehicle: saline 98 % of control | endpoint: mean survival time, dose: 150.0 mg/kg/injection, schedule: Q01DX001 (ip), vehicle: saline 104 % of control | endpoint: mean survival time, dose: 300.0 mg/kg/injection, schedule: Q01DX001 (ip), vehicle: saline 96 % of control

CSc1ncnc2c1ccn2C1OC(COP(=O)(O)O)C(O)C1O (stereo not given)
inactive: endpoint: mean survival time, dose: 12.5 mg/kg/injection, schedule: Q01DX005 (ip), vehicle: water 105 % of control | endpoint: mean survival time, dose: 25.0 mg/kg/injection, schedule: Q01DX005 (ip), vehicle: water 108 % of control and 111 % of control | endpoint: mean survival time, dose: 50.0 mg/kg/injection, schedule: Q01DX005 (ip), vehicle: water 114 % of control and 109 % of control | endpoint: mean survival time, dose: 150.0 mg/kg/injection, schedule: Q01DX005 (ip), vehicle: water 121 % of control

CC(C)CC(CC(C)C)C(=O)C1C2CCC(O2)C1C(=O)C(CC(C)C)CC(C)C (stereo not given)
inactive: [11] 88 % of control

O=C(OC1OC(CO)C(O)C(O)C1O)c1ccccc1 (stereo not given)
inactive: [8] 97 % of control | [9] 101 % of control | endpoint: mean survival time, dose: 200.0 mg/kg/injection, schedule: Q01DX009 (ip), vehicle: saline 93 % of control

C=CC1(C)C(C)=C(C)C(C)=C1C
inactive: endpoint: mean survival time, dose: 100.0 mg/kg/injection, schedule: Q01DX001 (ip), vehicle: saline sonified 100 % of control | endpoint: mean survival time, dose: 200.0 mg/kg/injection, schedule: Q01DX001 (ip), vehicle: saline sonified 94 % of control | endpoint: mean survival time, dose: 400.0 mg/kg/injection, schedule: Q01DX001 (ip), vehicle: saline sonified 89 % of control

CC1(OO)OOC(=O)C1(C)C (stereo not given)
inactive: endpoint: mean survival time, dose: 6.25 mg/kg/injection, schedule: Q04DX002 (ip), vehicle: saline with Tween-80 90 % of control | endpoint: mean survival time, dose: 12.5 mg/kg/injection, schedule: Q04DX002 (ip), vehicle: saline with Tween-80 93 % of control | [11] 96 % of control

O/N=C(/c1ccccc1)c1ccc(O)cc1
inactive: endpoint: median survival time, dose: 25.0 mg/kg/injection, schedule: Q01DX001 (ip), vehicle: saline with Tween-80 104 % of control | endpoint: median survival time, dose: 50.0 mg/kg/injection, schedule: Q01DX001 (ip), vehicle: saline with Tween-80 101 % of control | endpoint: median survival time, dose: 100.0 mg/kg/injection, schedule: Q01DX001 (ip), vehicle: saline with Tween-80 98 % of control | endpoint: median survival time, dose: 200.0 mg/kg/injection, schedule: Q01DX001 (ip), vehicle: saline with Tween-80 104 % of control | endpoint: median survival time, dose: 400.0 mg/kg/injection, schedule: Q01DX001 (ip), vehicle: saline with Tween-80 101 % of control

NC(=O)c1csc(C2OC(CO)CC2O)n1 (stereo not given)
inactive: endpoint: median survival time, dose: 37.5 mg/kg/injection, schedule: Q01DX005 (ip), vehicle: water 92 % of control | endpoint: median survival time, dose: 75.0 mg/kg/injection, schedule: Q01DX005 (ip), vehicle: water 107 % of control | endpoint: median survival time, dose: 125.0 mg/kg/injection, schedule: Q01DX005 (ip), vehicle: water 104 % of control | endpoint: median survival time, dose: 150.0 mg/kg/injection, schedule: Q01DX005 (ip), vehicle: water 102 % of control | endpoint: median survival time, dose: 250.0 mg/kg/injection, schedule: Q01DX005 (ip), vehicle: water 116 % of control | endpoint: median survival time, dose: 300.0 mg/kg/injection, schedule: Q01DX005 (ip), vehicle: water 109 % of control | endpoint: median survival time, dose: 500.0 mg/kg/injection, schedule: Q01DX005 (ip), vehicle: water 121 % of control

Cc1ccc(S(=O)(=O)OC2CCC3C4CCC5=CC(=O)CCC5(C)C4CCC23C)cc1 (stereo not given)
inactive: endpoint: mean survival time, dose: 75.0 mg/kg/injection, schedule: Q04DX003 (sc), vehicle: steriod suspending solution 98 % of control | endpoint: mean survival time, dose: 150.0 mg/kg/injection, schedule: Q04DX003 (sc), vehicle: steriod suspending solution 98 % of control | endpoint: mean survival time, dose: 300.0 mg/kg/injection, schedule: Q04DX003 (sc), vehicle: steriod suspending solution 98 % of control

COC(=O)c1ccc(-n2cc(C(=O)OC)c([N+]#N)c2[O-])cc1
inactive: [3] 107 % of control | [4] 88 % of control | [10] 93 % of control | [12] 107 % of control | [13] 93 % of control

CC(=NCC(C)N=C(C)c1ccccc1O)c1ccccc1O.[Ni] (stereo not given)
inactive: [2] 109 % of control | [3] 97 % of control | [4] 97 % of control | [12] 97 % of control

O=C1Cc2ccccc2CO1
inactive: [1] 97 % of control | [10] 94 % of control | [13] 105 % of control

Cc1ccc(-c2csc(/N=C/c3ccccc3O)n2)cc1
inactive: endpoint: mean survival time, dose: 100.0 mg/kg/injection, schedule: Q01DX001 (ip), vehicle: saline with Tween-80 89 % of control | endpoint: mean survival time, dose: 200.0 mg/kg/injection, schedule: Q01DX001 (ip), vehicle: saline with Tween-80 86 % of control | endpoint: mean survival time, dose: 400.0 mg/kg/injection, schedule: Q01DX001 (ip), vehicle: saline with Tween-80 86 % of control

CCOP(=O)(NCc1ccco1)OCC
inactive: endpoint: mean survival time, dose: 50.0 mg/kg/injection, schedule: Q01DX001 (ip), vehicle: carboxymethylcellulose (CMC) 106 % of control | endpoint: mean survival time, dose: 100.0 mg/kg/injection, schedule: Q01DX001 (ip), vehicle: carboxymethylcellulose (CMC) 112 % of control

CCCCC(C#N)(CCCC)C(=O)OCC
inactive: [5] 101 % of control | [6] 91 % of control | [7] 97 % of control
